Measurements taken from ChEMBL document CHEMBL1914418, “Biochemical and pharmacological profiling of the pro-survival protein Bcl-xL” (Bioorg Med Chem Lett, 2011).

Tests used:
Bcl-2-like protein 1 [1] = target: Bcl-2-like protein 1 (Homo sapiens, UniProt Q07817, A93V); test: Displacement of BODIPY-Bak conjugated peptide from GST-tagged human Bcl-2-like protein 1 A93V mutant expressed in Escherichia coli BL21 cells at 40 uM after 3 hrs by fluorescence polarization competition assay
Bcl-2-like protein 1 [2] = target: Bcl-2-like protein 1 (Homo sapiens, UniProt Q07817, E96G); test: Displacement of BODIPY-Bak conjugated peptide from GST-tagged human Bcl-2-like protein 1 E96G mutant expressed in Escherichia coli BL21 cells at 40 uM after 3 hrs by fluorescence polarization competition assay
Bcl-2-like protein 1 [3] = target: Bcl-2-like protein 1 (Homo sapiens, UniProt Q07817, L130A); test: Displacement of BODIPY-Bak conjugated peptide from GST-tagged human Bcl-2-like protein 1 L130A mutant expressed in Escherichia coli BL21 cells at 40 uM after 3 hrs by fluorescence polarization competition assay
[4] = Displacement of BODIPY-Bak conjugated peptide from GST-tagged human Bcl-2-like protein 1 delta136T mutant expressed in Escherichia coli BL21 cells at 40 uM after 3 hrs by fluorescence polarization competition assay
Bcl-2-like protein 1 [5] = target: Bcl-2-like protein 1 (Homo sapiens, UniProt Q07817, R100E); test: Displacement of BODIPY-Bak conjugated peptide from GST-tagged human Bcl-2-like protein 1 R100E mutant expressed in Escherichia coli BL21 cells at 40 uM after 3 hrs by fluorescence polarization competition assay
Bcl-2-like protein 1 [6] = target: Bcl-2-like protein 1 (Homo sapiens, UniProt Q07817, E129H); test: Displacement of BODIPY-Bak conjugated peptide from GST-tagged human Bcl-2-like protein 1 E129H mutant expressed in Escherichia coli BL21 cells at 40 uM after 3 hrs by fluorescence polarization competition assay
[7] = Displacement of BODIPY-Bak conjugated peptide from GST-tagged human Bcl-2-like protein 1 A142G, delta136T mutant expressed in Escherichia coli BL21 cells at 40 uM after 3 hrs by fluorescence polarization competition assay
Bcl-2-like protein 1 [8] = target: Bcl-2-like protein 1 (Homo sapiens, UniProt Q07817, A142T); test: Displacement of BODIPY-Bak conjugated peptide from GST-tagged human Bcl-2-like protein 1 A142T mutant expressed in Escherichia coli BL21 cells at 40 uM after 3 hrs by fluorescence polarization competition assay
Bcl-2-like protein 1 [9] = target: T1, Bcl-2-like protein 1 (Homo sapiens, UniProt Q07817, L130G); test: Displacement of BODIPY-Bak conjugated peptide from GST-tagged human Bcl-2-like protein 1 L130G mutant expressed in Escherichia coli BL21 cells at 40 uM after 3 hrs by fluorescence polarization competition assay
Bcl-2-like protein 1 [10] = target: T2, Bcl-2-like protein 1 (Homo sapiens, UniProt Q07817, L130V); test: Displacement of BODIPY-Bak conjugated peptide from GST-tagged human Bcl-2-like protein 1 L130V mutant expressed in Escherichia coli BL21 cells at 40 uM after 3 hrs by fluorescence polarization competition assay
Bcl-2-like protein 1 [11] = target: Bcl-2-like protein 1 (Homo sapiens, UniProt Q07817, V141A); test: Displacement of BODIPY-Bak conjugated peptide from GST-tagged human Bcl-2-like protein 1 V141A mutant expressed in Escherichia coli BL21 cells at 40 uM after 3 hrs by fluorescence polarization competition assay
Bcl-2-like protein 1 [12] = target: Bcl-2-like protein 1 (Homo sapiens, UniProt Q07817, G196A); test: Displacement of BODIPY-Bak conjugated peptide from GST-tagged human Bcl-2-like protein 1 G196A mutant expressed in Escherichia coli BL21 cells at 40 uM after 3 hrs by fluorescence polarization competition assay
Bcl-2-like protein 1 [13] = target: Bcl-2-like protein 1 (Homo sapiens, UniProt Q07817, Y101H); test: Displacement of BODIPY-Bak conjugated peptide from GST-tagged human Bcl-2-like protein 1 Y101H mutant expressed in Escherichia coli BL21 cells at 40 uM after 3 hrs by fluorescence polarization competition assay
Bcl-2-like protein 1 [14] = target: Bcl-2-like protein 1 (Homo sapiens, UniProt Q07817, Y195F); test: Displacement of BODIPY-Bak conjugated peptide from GST-tagged human Bcl-2-like protein 1 Y195F mutant expressed in Escherichia coli BL21 cells at 40 uM after 3 hrs by fluorescence polarization competition assay
Bcl-2-like protein 1 [15] = target: Bcl-2-like protein 1 (Homo sapiens, UniProt Q07817, A142G); test: Displacement of BODIPY-Bak conjugated peptide from GST-tagged human Bcl-2-like protein 1 A142G mutant expressed in Escherichia coli BL21 cells at 40 uM after 3 hrs by fluorescence polarization competition assay
Bcl-2-like protein 1 [16] = target: T3, Bcl-2-like protein 1 (Homo sapiens, UniProt Q07817); test: Displacement of BODIPY-Bak conjugated peptide from GST-tagged human Wild type Bcl-2-like protein 1 expressed in Escherichia coli BL21 cells at 40 uM after 3 hrs by fluorescence polarization competition assay
Bcl-2-like protein 1 [17] = target: Bcl-2-like protein 1 (Homo sapiens, UniProt Q07817, F97V); test: Displacement of BODIPY-Bak conjugated peptide from GST-tagged human Bcl-2-like protein 1 F97V mutant expressed in Escherichia coli BL21 cells at 40 uM after 3 hrs by fluorescence polarization competition assay
Bcl-2-like protein 1 [18] = target: T1, Bcl-2-like protein 1; test: Displacement of BODIPY-Bak conjugated peptide from GST-tagged human Bcl-2-like protein 1 L130G mutant expressed in Escherichia coli BL21 cells at 10 uM after 3 hrs by fluorescence polarization competition assay
Bcl-2-like protein 1 [19] = target: T3, Bcl-2-like protein 1; test: Displacement of BODIPY-Bak conjugated peptide from GST-tagged human Wild type Bcl-2-like protein 1 expressed in Escherichia coli BL21 cells at 10 uM after 3 hrs by fluorescence polarization competition assay
Bcl-2-like protein 1 [20] = target: T2, Bcl-2-like protein 1; test: Displacement of BODIPY-Bak conjugated peptide from GST-tagged human Bcl-2-like protein 1 L130V mutant expressed in Escherichia coli BL21 cells at 10 uM after 3 hrs by fluorescence polarization competition assay
Bcl-2-like protein 2 = target: T4, Bcl-2-like protein 2 (Homo sapiens, UniProt Q92843); test: Displacement of BODIPY-Bak conjugated peptide from GST-tagged human wild type Bcl-W expressed in Escherichia coli BL21 cells at 10 uM after 3 hrs by fluorescence polarization competition assay
T4 sequence (Q92843 whole entry): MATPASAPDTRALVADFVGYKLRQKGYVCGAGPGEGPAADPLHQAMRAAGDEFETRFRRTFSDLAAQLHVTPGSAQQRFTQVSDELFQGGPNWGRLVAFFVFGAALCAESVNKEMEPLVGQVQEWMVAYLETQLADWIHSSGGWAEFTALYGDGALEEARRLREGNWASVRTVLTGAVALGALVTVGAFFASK

[21] = target: T5, Induced myeloid leukemia cell differentiation protein Mcl-1 homolog (Mus musculus, UniProt P97287); test: Displacement of BODIPY-Bak conjugated peptide from GST-tagged mouse wild type MCL1 expressed in Escherichia coli BL21 cells at 10 uM after 3 hrs by fluorescence polarization competition assay
[22] = Displacement of BODIPY-Bak conjugated peptide from GST-tagged human Bcl-2-like protein 1 delta136T mutant expressed in Escherichia coli BL21 cells at 10 uM after 3 hrs by fluorescence polarization competition assay
Bcl-2-related protein A1 = target: T6, Bcl-2-related protein A1 (Homo sapiens, UniProt Q16548); test: Binding affinity for GST-tagged human BCL2A1 expressed in Escherichia coli BL21 cells
T6 sequence (Q16548 whole entry): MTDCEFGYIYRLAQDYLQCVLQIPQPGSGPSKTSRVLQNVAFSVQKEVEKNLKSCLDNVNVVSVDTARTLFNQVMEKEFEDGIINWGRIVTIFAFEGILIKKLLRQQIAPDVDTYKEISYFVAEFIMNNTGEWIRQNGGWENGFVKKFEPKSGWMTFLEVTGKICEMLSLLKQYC

[23] = Displacement of BODIPY-Bak conjugated peptide from GST-tagged human Bcl-2-like protein 1 A142Gdelta136T mutant expressed in Escherichia coli BL21 cells at 10 uM after 3 hrs by fluorescence polarization competition assay
[24] = target: T5, Induced myeloid leukemia cell differentiation protein Mcl-1 homolog; test: Binding affinity for GST-tagged mouse MCL1 expressed in Escherichia coli BL21 cells

T1 sequence (Q07817 whole entry L130G): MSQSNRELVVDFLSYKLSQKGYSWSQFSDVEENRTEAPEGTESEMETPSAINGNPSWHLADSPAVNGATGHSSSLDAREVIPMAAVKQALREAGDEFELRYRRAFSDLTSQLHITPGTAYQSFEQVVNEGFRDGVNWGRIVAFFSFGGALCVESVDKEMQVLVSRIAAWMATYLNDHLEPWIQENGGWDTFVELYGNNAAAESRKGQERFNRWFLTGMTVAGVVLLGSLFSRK
T3 sequence (Q07817 whole entry): as the sequence (Q07817 whole entry L130G) above, with G130L counted along it
Chain of Bcl-2-like protein 1 (Homo sapiens, UniProt Q07817, G196A) (Q07817 whole entry G196A): as the sequence (Q07817 whole entry L130G) above, with G130L, G196A counted along it
Chain of Bcl-2-like protein 1 (Homo sapiens, UniProt Q07817, A93V) (Q07817 whole entry A93V): as the sequence (Q07817 whole entry L130G) above, with A93V, G130L counted along it
Chain of Bcl-2-like protein 1 (Homo sapiens, UniProt Q07817, E129H) (Q07817 whole entry E129H): as the sequence (Q07817 whole entry L130G) above, with E129H, G130L counted along it
Chain of Bcl-2-like protein 1 (Homo sapiens, UniProt Q07817, Y101H) (Q07817 whole entry Y101H): as the sequence (Q07817 whole entry L130G) above, with Y101H, G130L counted along it
Chain of Bcl-2-like protein 1 (Homo sapiens, UniProt Q07817, V141A) (Q07817 whole entry V141A): as the sequence (Q07817 whole entry L130G) above, with G130L, V141A counted along it
Chain of Bcl-2-like protein 1 (Homo sapiens, UniProt Q07817, A142T) (Q07817 whole entry A142T): as the sequence (Q07817 whole entry L130G) above, with G130L, A142T counted along it
Chain of Bcl-2-like protein 1 (Homo sapiens, UniProt Q07817, F97V) (Q07817 whole entry F97V): as the sequence (Q07817 whole entry L130G) above, with F97V, G130L counted along it
Chain of Bcl-2-like protein 1 (Homo sapiens, UniProt Q07817, A142G) (Q07817 whole entry A142G): as the sequence (Q07817 whole entry L130G) above, with G130L, A142G counted along it
Chain of Bcl-2-like protein 1 (Homo sapiens, UniProt Q07817, R100E) (Q07817 whole entry R100E): as the sequence (Q07817 whole entry L130G) above, with R100E, G130L counted along it
Chain of Bcl-2-like protein 1 (Homo sapiens, UniProt Q07817, E96G) (Q07817 whole entry E96G): as the sequence (Q07817 whole entry L130G) above, with E96G, G130L counted along it
Chain of Bcl-2-like protein 1 (Homo sapiens, UniProt Q07817, L130A) (Q07817 whole entry L130A): as the sequence (Q07817 whole entry L130G) above, with G130A counted along it
Chain of Bcl-2-like protein 1 (Homo sapiens, UniProt Q07817, Y195F) (Q07817 whole entry Y195F): as the sequence (Q07817 whole entry L130G) above, with G130L, Y195F counted along it
T2 sequence (Q07817 whole entry L130V): as the sequence (Q07817 whole entry L130G) above, with G130V counted along it
T5 sequence (P97287 whole entry): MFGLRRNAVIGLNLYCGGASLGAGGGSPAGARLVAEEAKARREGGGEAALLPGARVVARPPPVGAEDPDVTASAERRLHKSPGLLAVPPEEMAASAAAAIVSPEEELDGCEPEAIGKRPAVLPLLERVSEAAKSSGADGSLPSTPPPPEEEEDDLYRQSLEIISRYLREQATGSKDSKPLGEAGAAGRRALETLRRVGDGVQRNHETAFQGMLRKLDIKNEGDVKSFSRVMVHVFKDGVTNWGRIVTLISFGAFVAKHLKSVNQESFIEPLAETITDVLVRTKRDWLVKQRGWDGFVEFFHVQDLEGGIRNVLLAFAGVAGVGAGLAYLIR

Compound `CSCC[C@H](NC(=O)[C@H](CCCNC(=N)N)NC(=O)[C@H](CCCNC(=N)N)NC(=O)[C@H](CC(C)C)NC(=O)[C@H](CCC(=O)O)NC(=O)[C@H](CCCNC(=N)N)NC(=O)CNC(=O)[C@H](Cc1ccc(O)cc1)NC(=O)[C@H](CCCNC(=N)N)NC(=O)[C@H](CCC(N)=O)NC(=O)[C@H](C)NC(=O)[C@H](C)NC(=O)[C@H](Cc1c[nH]c2ccccc12)NC(=O)[C@@H](N)CC(C)C)C(=O)N[C@@H](CO)C(=O)N[C@@H](CC(=O)O)C(=O)N[C@@H](CCC(=O)O)C(=O)N[C@@H](Cc1ccccc1)C(=O)N[C@@H](CCC(=O)O)C(=O)NCC(=O)N[C@@H](CO)C(=O)N[C@@H](Cc1ccccc1)C(=O)N[C@@H](CCCCN)C(=O)NCC(=O)N[C@@H](CC(C)C)C(=O)O` has a Ki (Bcl-2-like protein 1 [1]) of less than 1 nM, a Ki (Bcl-2-like protein 1 [2]) of less than 5 nM and a Ki (Bcl-2-like protein 1 [3]) of 140 nM. The Ki [4] was 8.5 nM, the Ki (Bcl-2-like protein 1 [5]) was 55 nM and the Ki (Bcl-2-like protein 1 [6]) was 77 nM. It also gave a Ki [7] of 9.8 nM, a Ki (Bcl-2-like protein 1 [8]) of 41 nM and a Ki (Bcl-2-like protein 1 [9]) of 660 nM. It also gave a Ki (Bcl-2-like protein 1 [10]) of 11 nM, a Ki (Bcl-2-like protein 1 [11]) of 42 nM and a Ki (Bcl-2-like protein 1 [12]) of 2.3 nM. The Ki (Bcl-2-like protein 1 [13]) was 96 nM, the Ki (Bcl-2-like protein 1 [14]) was 4.5 nM and the Ki (Bcl-2-like protein 1 [15]) was less than 1 nM. For the same compound, the Ki (Bcl-2-like protein 1 [16]) was 3.2 nM and the Ki (Bcl-2-like protein 1 [17]) was 150 nM.

In the case of `CC[C@H](C)[C@H](NC(=O)[C@H](CCC(=O)O)NC(=O)[C@H](CCCNC(=N)N)NC(=O)[C@H](C)NC(=O)[C@H](Cc1c[nH]c2ccccc12)NC(=O)[C@H](CCC(N)=O)NC(=O)[C@H](CCC(=O)O)NC(=O)[C@@H](N)CCC(=O)O)C(=O)NCC(=O)N[C@@H](C)C(=O)N[C@@H](CCC(N)=O)C(=O)N[C@@H](CC(C)C)C(=O)N[C@@H](CCCNC(=N)N)C(=O)N[C@@H](CCCNC(=N)N)C(=O)N[C@@H](CCSC)C(=O)N[C@@H](C)C(=O)N[C@@H](CC(=O)O)C(=O)N[C@@H](CC(=O)O)C(=O)N[C@@H](CC(C)C)C(=O)N[C@@H](CC(N)=O)C(=O)N[C@@H](C)C(=O)N[C@@H](CCC(N)=O)C(=O)N[C@@H](Cc1ccc(O)cc1)C(=O)N[C@@H](CCC(=O)O)C(=O)N[C@@H](CCCNC(=N)N)C(=O)N[C@@H](CCCNC(=N)N)C(=O)O`, the Ki (Bcl-2-like protein 1 [1]) is reported as greater than 10000 nM, the Ki (Bcl-2-like protein 1 [2]) is reported as greater than 10000 nM and the Ki (Bcl-2-like protein 1 [3]) is reported as 120 nM. The Ki [4] was 26 nM, the Ki (Bcl-2-like protein 1 [5]) was 180 nM and the Ki (Bcl-2-like protein 1 [6]) was 170 nM. It also gave a Ki [7] of 75 nM, a Ki (Bcl-2-like protein 1 [8]) of 130 nM and a Ki (Bcl-2-like protein 1 [9]) of 530 nM. It also gave a Ki (Bcl-2-like protein 1 [10]) of 29 nM, a Ki (Bcl-2-like protein 1 [11]) of 100 nM and a Ki (Bcl-2-like protein 1 [12]) of 8.9 nM. It also gave a Ki (Bcl-2-like protein 1 [13]) of 380 nM, a Ki (Bcl-2-like protein 1 [14]) of 8.7 nM and a Ki (Bcl-2-like protein 1 [15]) of 9.7 nM. It also gave a Ki (Bcl-2-like protein 1 [16]) of 1.4 nM and a Ki (Bcl-2-like protein 1 [17]) of 89 nM.

`CN(C)CC[C@H](CSc1ccccc1)Nc1ccc(S(=O)(=O)NC(=O)c2ccc(N3CCN(Cc4ccccc4C(F)(F)F)CC3)cc2)cc1[N+](=O)[O-]` gave a Ki (Bcl-2-like protein 1 [18]) of 200 nM, a Ki (Bcl-2-like protein 1 [19]) of 3.5 nM and a Ki (Bcl-2-like protein 1 [20]) of 11 nM. The Ki (Bcl-2-like protein 2) was 49 nM and the Ki [21] was greater than 10000 nM.

Compound `CN(C)CC[C@H](CSc1ccccc1)Nc1ccc(S(=O)(=O)NC(=O)c2ccc(N3CCN(Cc4ccccc4-c4ccc(Cl)cc4)CC3)cc2)cc1[N+](=O)[O-]` [ABT 737] has a Ki [22] of 60 nM, a Kd (Bcl-2-related protein A1) greater than 1000 nM and a Ki [23] of 10 nM. For the same compound, the Kd [24] was greater than 1000 nM.

H-PAELEVECATQLRRFGDKLNFRQKLL-OH gave a Ki (Bcl-2-like protein 1 [1]) greater than 10000 nM, a Ki (Bcl-2-like protein 1 [2]) greater than 10000 nM and a Ki (Bcl-2-like protein 1 [3]) greater than 10000 nM. It also gave a Ki [4] greater than 10000 nM, a Ki (Bcl-2-like protein 1 [5]) greater than 10000 nM and a Ki (Bcl-2-like protein 1 [6]) greater than 10000 nM. It also gave a Ki [7] greater than 10000 nM, a Ki (Bcl-2-like protein 1 [8]) greater than 10000 nM and a Ki (Bcl-2-like protein 1 [9]) greater than 10000 nM. It also gave a Ki (Bcl-2-like protein 1 [10]) greater than 10000 nM, a Ki (Bcl-2-like protein 1 [11]) greater than 10000 nM and a Ki (Bcl-2-like protein 1 [12]) greater than 10000 nM. For the same compound, the Ki (Bcl-2-like protein 1 [13]) was greater than 10000 nM, the Ki (Bcl-2-like protein 1 [14]) was greater than 10000 nM and the Ki (Bcl-2-like protein 1 [15]) was greater than 10000 nM. For the same compound, the Ki (Bcl-2-like protein 1 [16]) was greater than 10000 nM and the Ki (Bcl-2-like protein 1 [17]) was greater than 10000 nM.
